The subject of test [1] is REL-A (p65) nuclear translocation, HeLa cells. The test can be described thus: REL-A (p65) nuclear translocation assay in HeLa cells (classical NF-kB signaling, TNF-α stimulated). In kind it is cell-based. Particulars: Homo sapiens, 0.5 h. Here is the method:
(§1) Several assays were developed to profile the cellular activities of NIK inhibitors.
(§2) (2) A second set of cell assay are used to define the selectivity of NIK inhibitors toward inhibition of classical vs. non-classical NF-kB signaling and rely on quantification of the nuclear translocation of p52 (NF-kB2) and REL-A (p65) using high content cellular imaging. For the p52 (non-classical NF-kB signaling) nuclear translocation assay, HeLa cells are treated with different concentrations of compounds (0.2% DMSO final) in medium containing 10% fetal bovine serum and then stimulated with 100 ng/mL of an anti-lymphotoxin beta receptor antibody (R&D Systems) for 5 hours. In the REL-A nuclear translocation assay, HeLa cells are incubated with compounds (0.2% DMSO final) for 4.5 hours in medium containing 10% fetal bovine serum before stimulating them with 10 ng/mL tumor necrosis factor (TNF)-α (R&D Systems) for 30 minutes. Cells are fixed with 4% paraformaldehyde, permeabilized by adding 0.1% Triton X-100 in phosphate buffered saline, and then are incubated with either 2 ug/mL anti-p52 antibody (Millipore) or 400 ng/mL anti-REL-A (p65) antibody (Santa Cruz Biotechnology). Finally, the cells are incubated with an Alexa488-labeled secondary antibody (Invitrogen) and DRAQ5 DNA stain (Biostatus). Imaging is carried out using an Opera reader (Perkin Elmer) and data are analyzed with the aid of Acapella software (Perkin Elmer). The p52 or REL-Atranslocation into the nucleus is quantified by the ratio of the nuclear to cytoplasmic signal intensity. […] The compounds in listed in Table 1 have the corresponding inhibitory value (IC50 in micromolar) for NIK p52 Translocation Assay as set forth in Table 2.
(§3) The compounds in listed in Table 1 have the corresponding inhibitory values (IC50 in micromolar) for the Translocation Assays as set forth in Table 2.

Test [2] has as its system p52 (NF-kB2) nuclear translocation, HeLa cells. Kind of test: p52 (NF-kB2) nuclear translocation assay in HeLa cells (non-classical NF-kB signaling, anti-lymphotoxin beta receptor antibody stimulated). The test is classed as cell-based. Particulars: Homo sapiens, 100 ng/mL anti-lymphotoxin beta receptor antibody for 5 hours, read-out: p52 HeLa Transloc Assay (IC50). The method, then:
as §1, §2, §3

In test [3] the target is nuclear factor-kappa B (NF-kB)-inducing kinase (NIK) (Homo sapiens (Human), UniProt Q99558). The test can be described thus: NIK enzyme inhibition assay (Transcreener ADP, NIK ADP-FP). In kind it is biochemical. Conditions: purified NIK 0.5 nM, 10 μM ATP, fluorescence polarization; read-out: NIK ADP-FP (Ki μM). A general note: Polarisation of emitted light reports the rotation of a fluorescent probe.
nuclear factor-kappa B (NF-kB)-inducing kinase (NIK), sequence (Q99558 whole entry): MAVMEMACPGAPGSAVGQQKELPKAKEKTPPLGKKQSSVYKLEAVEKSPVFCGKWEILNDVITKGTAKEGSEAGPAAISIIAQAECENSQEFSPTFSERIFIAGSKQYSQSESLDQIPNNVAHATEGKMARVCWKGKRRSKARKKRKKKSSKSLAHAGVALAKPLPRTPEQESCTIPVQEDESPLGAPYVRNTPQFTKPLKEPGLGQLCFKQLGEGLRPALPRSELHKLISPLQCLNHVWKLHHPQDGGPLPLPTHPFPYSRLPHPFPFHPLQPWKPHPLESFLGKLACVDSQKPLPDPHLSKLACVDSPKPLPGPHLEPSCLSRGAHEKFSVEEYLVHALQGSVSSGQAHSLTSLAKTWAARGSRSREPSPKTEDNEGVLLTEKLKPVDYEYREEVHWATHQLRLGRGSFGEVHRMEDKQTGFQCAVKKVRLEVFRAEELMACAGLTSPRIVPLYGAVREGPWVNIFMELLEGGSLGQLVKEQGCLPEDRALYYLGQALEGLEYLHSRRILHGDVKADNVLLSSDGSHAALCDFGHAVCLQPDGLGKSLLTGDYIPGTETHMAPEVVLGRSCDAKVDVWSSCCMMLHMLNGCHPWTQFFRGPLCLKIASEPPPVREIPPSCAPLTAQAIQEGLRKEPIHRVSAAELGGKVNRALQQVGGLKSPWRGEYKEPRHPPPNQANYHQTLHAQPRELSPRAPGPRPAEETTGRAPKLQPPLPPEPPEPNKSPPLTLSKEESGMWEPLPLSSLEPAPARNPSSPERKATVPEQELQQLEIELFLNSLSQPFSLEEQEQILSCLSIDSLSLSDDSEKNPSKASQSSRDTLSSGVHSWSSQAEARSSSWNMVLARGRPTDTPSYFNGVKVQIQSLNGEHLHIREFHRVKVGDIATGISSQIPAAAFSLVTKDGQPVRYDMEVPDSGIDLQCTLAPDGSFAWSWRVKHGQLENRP

[4] abbreviates: HeLa cells, 10 ng/mL TNF-α for 30 minutes, read-out: REL-A HeLa Transloc Assay (IC50).

Like-named read-outs stand apart in the source and are kept apart here.

The term IC50 denotes the concentration at which inhibition is half-maximal. Broadly, the Ki is a measure of affinity in units of concentration, obtained from inhibition or displacement.

On to `CC(O)(C#Cc1cccc(-n2nc(C(N)=O)c3ccccc32)c1)c1nccs1` (single isomer, unassigned) [Compound 170], for which the IC50 in test [1] (HeLa, read-out: REL-A HeLa Transloc Assay (IC50) [μM]) stood at 17.1 µM; in test [2], 244 nM. In test [3], the Ki was 0.75 nM.

Take `CN1CC[C@@](O)(C#Cc2cccc(-n3nc(C(N)=O)c4c3CCC[C@H]4O)c2)C1=O` [Compound 2, (4R)-4-hydroxy-1-[3-[2-[(3R)-3-hydroxy-1-methyl-2-oxo-pyrrolidin-3-yl]ethynyl]phenyl]-4,5,6,7-tetrahydroinda-zole-3-carboxamide]: the IC50 in test [1] (setting [4]) worked out at 20 µM; in test [2] it was 273 nM. Besides, the Ki in test [3] stood at 1.07 nM.

With `CN1CC[C@@](O)(C#Cc2cccc(-n3nc(C(N)=O)c4c3CCC[C@@H]4O)c2)C1=O` [Compound 3, (4S)-4-hydroxy-1-[3-[2-[(3R)-3-hydroxy-1-methyl-2-oxo-pyrrolidine-3-yl]ethynyl]phenyl]-4,5,6,7-tetrahydroinda-zole-3-carboxamide], the IC50 in test [1] (setting [4]) was determined as 20 µM; in test [2], 544 nM. Further, the Ki in test [3] was 1.13 nM.

Consider `CN1CC[C@@](O)(C#Cc2ccnc(-n3nc(C(N)=O)c4c3C[C@@]3(C)C[C@H]3C4)c2)C1=O` [Compound 6, (4aS,5aR)-1-[4-[2-[(3R)-3-hydroxy-1-methyl-2-oxo-pyrroli-din-3-yl]ethynyl]-2-pyri-dyl]-5a-methyl-4,4a,5,6-tetrahydrocyclopropa[f]inda-zole-3-carboxamide], for which the IC50 in test [1] (setting [4]) amounted to 10 µM; in test [2], 901 nM. For the same molecule, the Ki in test [3] was 7.78 nM.

In the case of `CN1CC[C@@](O)(C#Cc2ccnc(-n3nc(C(N)=O)c4c(F)cccc43)c2)C1=O` [Compound 10, 4-fluoro-1-[4-[2-[(3R)-3-hy-droxy-1-methyl-2-oxo-pyrroli-din-3-yl]ethynyl]-2-pyri-dyl]indazole-3-carboxamide], the 50% inhibitory concentration (IC50) in test [1] (setting [4]) stood at 20 µM; in test [2], 66.3 nM. For the same molecule, the Ki in test [3] amounted to 1.19 nM.

Take `CN1CC[C@@](O)(C#Cc2cccc(-n3nc(C(N)=O)c4c3OCCC4)c2)C1=O` [Compound 12, 1-[3-[2-[(3R)-3-hydroxy-1-methyl-2-oxo-pyrrolidin-3-yl]ethynyl]phenyl]-5,6-dihydro-4H-pyrano[2,3-c]pyrazole-3-carboxamide]: the IC50 in test [1] (setting [4]) was 20 µM; in test [2], 187 nM. The Ki in test [3] was 1.56 nM.

Consider `COc1ccc2c(c1)c(C(N)=O)nn2-c1cccc(C#C[C@]2(O)CCN(C)C2=O)c1` [Compound 14, 1-[3-[2-[(3R)-3-hydroxy-1-methyl-2-oxo-pyrrolidin-3-yl]ethynyl]phenyl]-5-methoxy-indazole-3-carboxamide], for which the values for the IC50 in test [1] (setting [4]) and in test [2] were 20 µM and 67.8 nM, respectively. Besides, in test [3], the Ki came out at 0.05 nM.

Regarding `CN1CC[C@@](O)(C#Cc2cccc(-n3nc(C(N)=O)c4c3CCN(C(=O)OC(C)(C)C)C4)c2)C1=O` [Compound 16, tert-butyl 3-carbamoyl-1-[3-[2-[(3R)-3-hydroxy-1-methyl-2-oxo-pyrrolidin-3-yl]ethynyl]phe-nyl]-6,7-dihydro-4H-pyrazolo [4,3-c]pyridine-5-carboxylate], the IC50 in test [1] (setting [4]) came out at 20 µM; in test [2] it was 125 nM. The Ki in test [3] is 0.9 nM.

With `CN1CC[C@@](O)(C#Cc2cc(F)cc(-n3nc(C(N)=O)c4cccnc43)c2)C1=O` [Compound 18, 1-[3-fluoro-5-[2-[(3R)-3-hy-droxy-1-methyl-2-oxo-pyrroli-din-3-yl]ethynyl]phenyl] pyrazolo[3,4-b]pyridine-3-carboxamide], the results for the IC50 in test [1] (setting [4]) and in test [2] were 20 µM and 138 nM, respectively. Further, the Ki in test [3] worked out at 0.86 nM.

`COc1ccc2c(C(N)=O)nn(-c3cccc(C#C[C@]4(O)CCN(C)C4=O)c3)c2c1` [Compound 22, 1-[3-[2-[(3R)-3-hydroxy-1-methyl-2-oxo-pyrrolidin-3-yl]ethynyl]phenyl]-6-methoxy-indazole-3-carboxamide]: the IC50 was 20 µM in test [1] (setting [4]) and 94.8 nM in test [2]. In test [3], the Ki was 0.34 nM.

For the molecule `Cc1nc2c(s1)c(C(N)=O)nn2-c1cccc(C#C[C@]2(O)CCN(C)C2=O)c1` [Compound 25, 1-[3-[2-[(3R)-3-hydroxy-1-methyl-2-oxo-pyrrolidin-3-yl]ethynyl]phenyl]-5-methyl-pyrazolo[3,4-d]thiazole-3-carboxamide], the half-inhibitory concentration (IC50) turned out to be 20 µM in test [1] (setting [4]) and 44.6 nM in test [2]. For the same molecule, in test [3], the Ki worked out at 0.41 nM.

For the molecule `Cc1nnc([C@](C)(O)C#Cc2cccc(-n3nc(C(N)=O)c4ccccc43)c2)o1` [Compound 26, 1-[3-[(3R)-3-hydroxy-3-(5-methyl-1,3,4-oxadiazol-2-yl)but-1-ynyl]phenyl]indazole-3-carboxamide], the 50% inhibitory concentration (IC50) in test [1] (setting [4]) was 20 µM; in test [2], 1130 nM. Also, the Ki in test [3] was found to be 2.52 nM.

As for `CN1CCC[C@@](O)(C#Cc2cccc(-n3nc(C(N)=O)c4ccc(F)cc43)c2)C1=O` [Compound 27, 6-fluoro-1-[3-[2-[(3R)-3-hy-droxy-1-methyl-2-oxo-3-pipe-ridyl]ethynyl]phenyl]inda-zole-3-carboxamide], the IC50 in test [1] (setting [4]) was determined as 20 µM; in test [2], 322 nM. Moreover, the inhibition constant (Ki) in test [3] was 3.75 nM.

For the molecule `CN1CC[C@@](O)(C#Cc2cc(-n3nc(C(N)=O)c4cccnc43)ccc2F)C1=O` [Compound 31, 1-[4-fluoro-3-[2-[(3R)-3-hy-droxy-1-methyl-2-oxo-pyrroli-din-3-yl]ethynyl]phenyl] pyrazolo[3,4-b]pyridine-3-carboxamide], the IC50 is 20 µM in test [1] (setting [4]) and 67.1 nM in test [2]. In addition, the Ki in test [3] came to 0.62 nM.

With `CN1CC[C@@](O)(C#Cc2ccnc(-n3nc(C(N)=O)c4c3CCCC4)c2)C1=O` [Compound 51, 1-[4-[2-[(3R)-3-hydroxy-1-methyl-2-oxo-pyrrolidin-3-yl]ethynyl]-2-pyridyl]-4,5,6,7-tetrahydroindazole-3-carbox-amide], the IC50 came to 7.19 µM in test [1] (setting [4]) and 225 nM in test [2].

For the molecule `CN1CC[C@@](O)(C#Cc2ccnc(-n3nc(C(N)=O)c4ccccc43)c2)C1=O` [Compound 52, 1-[4-[2-[(3R)-3-hydroxy-1-methyl-2-oxo-pyrrolidin-3-yl]ethynyl]-2-pyridyl]indazole-3-carboxamide], the IC50 in test [1] (setting [4]) was determined as 20 µM; in test [2] it was 22.8 nM.

Consider `CN1CC[C@@](O)(C#Cc2cccc(-n3nc(C(N)=O)c4cccnc43)c2)C1=O` [Compound 53, 1-[3-[2-[(3R)-3-hydroxy-1-methyl-2-oxo-pyrrolidin-3-yl]ethynyl]phenyl]pyrazolo [3,4-b]pyridine-3-carboxamide], for which the values for the IC50 in test [1] (setting [4]) and in test [2] were 20 µM and 37.9 nM, respectively.

As to `CN1CC[C@@](O)(C#Cc2ccnc(-n3nc(C(N)=O)c4cc(F)ccc43)c2)C1=O` [Compound 54, 5-fluoro-1-[4-[2-[(3R)-3-hy-droxy-1-methyl-2-oxo-pyrroli-din-3-yl]ethynyl]-2-pyri-diyl]indazole-3-carboxamide], the IC50 stood at 2 µM in test [1] (setting [4]) and 39 nM in test [2].

For the molecule `COc1cnc2c(c1)c(C(N)=O)nn2-c1cccc(C#C[C@]2(O)CCN(C)C2=O)c1` [Compound 74, 1-[3-[2-[(3R)-3-hydroxy-1-methyl-2-oxo-pyrrolidin-3-yl]ethynyl]phenyl]-5-methoxy-pyrazolo[3,4-b]pyridine-3-carboxamide], the IC50 turned out to be 8 µM in test [1] (setting [4]) and 13.9 nM in test [2].

In the case of `CN1CC[C@@](O)(C#Cc2cccc(-c3nc(C(N)=O)n4ccccc34)c2)C1=O` [Compound 77, 1-[3-[2-[(3R)-3-hydroxy-1-methyl-2-oxo-pyrrolidin-3-yl]ethynyl]phenyl]imidazo[1,5-a]pyridine-3-carboxamide], the IC50 in test [1] (setting [4]) stood at 20 µM; in test [2], 29.8 nM.

As for `CN1CC[C@@](O)(C#Cc2cccc(-c3nc(C(N)=O)c4ccccn34)c2)C1=O` [Compound 88, 3-[3-[2-[(3R)-3-hydroxy-1-methyl-2-oxo-pyrrolidin-3-yl]ethynyl]phenyl]imidazo[1,5-a]pyridine-1-carboxamide], the IC50 in test [1] (setting [4]) turned out to be 20 µM; in test [2], 240 nM.

Regarding `COc1ccc2c(-c3cccc(C#C[C@]4(O)CCN(C)C4=O)c3)nc(C(N)=O)n2c1` [Compound 98, 1-[3-[2-[(3R)-3-hydroxy-1-methyl-2-oxo-pyrrolidin-3-yl]ethynyl]phenyl]-6-methoxy-imidazo[1,5-a]pyridine-3-carboxamide], the IC50 was found to be 6.32 µM in test [1] (setting [4]) and 17 nM in test [2].

For the origin of these results see US9605005B2, “Alkynyl alcohols and methods of use” (Genentech, Inc., priority 2013, dated 2017).
